Patent EP0618905B1, “IMIDAZOLYL-ALKYL-PIPERAZINE AND -DIAZEPINE DERIVATIVES AS HISTAMINE H3 AGONISTS/ANTAGONISTS” (SCHERING CORPORATION, priority 1991, dated 1993)

What was measured:
H₃ receptors = target: T1, H₃ receptors (Cavia porcellus, UniProt Q9JI35); assay: H3 Receptor Binding Assay; details: guinea pig brain membranes; for H3 Binding (inhibition of the specific binding of radioactive ligand): final concentration 2 µg/mL with 0.1% DMSO, not serially diluted (70% or less inhibition); for Ki: 3 nM [³H]R-α-methylhistamine or [³H]-N-methylhistamine, 30° for 30 min
T1 construct: The source of the H₃ receptors in this experiment was guinea pig brain; from tissue; host or cells: guinea pig brain membranes
T1 sequence (Q9JI35 whole entry): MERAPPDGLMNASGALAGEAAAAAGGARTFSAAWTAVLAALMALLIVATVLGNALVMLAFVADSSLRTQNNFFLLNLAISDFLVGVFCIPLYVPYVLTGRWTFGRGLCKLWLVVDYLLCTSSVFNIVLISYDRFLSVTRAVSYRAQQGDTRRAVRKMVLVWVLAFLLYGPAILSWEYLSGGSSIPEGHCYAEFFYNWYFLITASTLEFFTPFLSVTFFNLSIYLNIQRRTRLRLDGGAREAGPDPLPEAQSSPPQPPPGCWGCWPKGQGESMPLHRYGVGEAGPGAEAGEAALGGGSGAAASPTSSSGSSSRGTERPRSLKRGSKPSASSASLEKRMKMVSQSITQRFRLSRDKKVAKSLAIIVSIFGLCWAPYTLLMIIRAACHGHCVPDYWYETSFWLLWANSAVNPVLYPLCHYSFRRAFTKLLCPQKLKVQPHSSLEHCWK
Description: H₃ Receptor Binding Assay
The source of the H₃ receptors in this experiment was guinea pig brain. The animals used weighed 400-600 g. The tissue was homogenized using a Polytron in a solution of 50 mM Tris, pH 7.5. The final concentration of tissue in the homogenization buffer was 10% w/v. The homogenates were centrifuged at 1000 x g for 10 min. in order to remove clumps of tissue and debris. The resulting supernatants were then centrifuged at 50,000 x g for 20 min. in order to sediment the membranes, which were nest washed 3 times in homogenization buffer (50,000 x g for 20 min. each). The membranes were frozen and stored at -70°C until needed.
All compounds to be tested were dissolved in DMSO and then diluted into the binding buffer (50 mM Tris, pH 7.5) such that the final concentration was 2 µg/mL with 0.1% DMSO. Membranes were then added (400 µg of protein) to the reaction tubes. The reaction was started by the addition of 3 nM [³H]R-α-methylhistamine (8.8 Ci/mmol) or [³H]-N-methylhistamine (80 Ci/mmol) and incubated at 30° for 30 min. Bound ligand was separated from unbound ligand by filtration, and the amount of radioactive ligand bound to the membranes was quantitiated by liquid scintillation spectrometry.

[1] = target: H₃ receptors in rat brain (Rattus norvegicus, UniProt Q9QYN8); details: complete agonists of the H₃ receptors; cited from earlier work
H₃ receptors in rat brain, sequence (Q9QYN8 whole entry): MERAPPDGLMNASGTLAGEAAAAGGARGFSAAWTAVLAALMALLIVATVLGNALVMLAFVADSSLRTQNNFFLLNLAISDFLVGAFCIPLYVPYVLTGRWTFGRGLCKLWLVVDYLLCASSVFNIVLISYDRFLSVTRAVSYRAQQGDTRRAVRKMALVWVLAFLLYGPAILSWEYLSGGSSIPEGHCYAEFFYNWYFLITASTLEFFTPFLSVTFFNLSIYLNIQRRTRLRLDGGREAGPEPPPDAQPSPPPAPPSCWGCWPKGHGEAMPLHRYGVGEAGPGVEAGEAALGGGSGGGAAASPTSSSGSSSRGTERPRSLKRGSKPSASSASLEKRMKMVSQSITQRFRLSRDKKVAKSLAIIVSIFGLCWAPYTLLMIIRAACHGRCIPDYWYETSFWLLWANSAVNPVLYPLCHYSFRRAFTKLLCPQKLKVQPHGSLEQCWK

| SMILES | H3 Binding (inhibition of the specific binding of radioactive ligand) (H₃ receptors) | Ki (H₃ receptors) | further results |
| --- | --- | --- | --- |
| CC1CN(Cc2c[nH]cn2)C(C)CN1 (stereo not drawn) | 6% |  |  |
| NCCc1c[nH]cn1 [histamine] |  |  | maximal inhibition of release [1]: approximately 60% |
| NCCc1c[nH]cn1 [(a*), reference compound] |  | 14 nM |  |
| C[C@@H]1CN(Cc2c[nH]cn2)C[C@H](C)N1 | 24% |  |  |
| c1nc(CN2CCCNCC2)c[nH]1 |  | 87 nM |  |
| c1nc(CN2CCNCC2)c[nH]1 |  | 4.7 nM |  |
